The results in this text go back to publication PMC10341573, “Design, Synthesis, and Biological Evaluation of Novel Quinazolin-4(3H)-One-Based Histone Deacetylase 6 (HDAC6) Inhibitors for Anticancer Activity” (International Journal of Molecular Sciences, 2023).

In assay [1] the test system is MCF7 and HCT-116 cells. The assay can be described thus: Acridine orange staining and fluorescence imaging. The settings on record: 48 h. The assay is classed as cell-based, human. An excerpt: (§1) The control had intact nuclei, as depicted by the green fluorescence due to AO binding to dsDNA, in contrast to the apoptotic nuclei of 5c-treated cells depicted by orange fluorescence due to AO staining of ssDNA and RNA. This observation was supported by the protein expression of cleaved poly (ADP-ribose) polymerase (PARP), which represents the degree of apoptosis in cells, as shown in Figure 9B. […] Acridine orange (AO) staining can also be influenced by autophagosomal pH.

Another assay relates to cleaved PARP. The assay can be described thus: Western blot of cleaved PARP. The assay is classed as cell-based, human. The settings on record: MCF7 and HCT-116 cells, compared to untreated cells.
Source text: as §1
On the basis of the results obtained from the cell proliferation assay, further experiments were conducted on MCF7 and HCT-116 cells treated with compound 5c. The cells were harvested, and 0.1 × 10^6 cells were seeded in a 12-well cell culture plate and allowed to adhere properly. The cells were then incubated with 0.1 μM and 1 μM concentrations of compound 5c for 24 h. Cells were pelleted in 1× PBS and lysed using ice-cold RIPA buffer. The protein concentration of the lysate was quantified using the Bradford assay and an equal concentration of sample proteins was run on 12% SDS-PAGE and transferred onto 0.45 μm PVDF membrane (Millipore (St. Louis, MO, USA), Immobilon IPVH00010). […]
In general terms: Immunoblotting shows a protein as a band on a membrane.

In a further assay the target is T1, HDAC8 (Homo sapiens, UniProt Q9BY41).
T1 construct: codon-optimized full-length HDAC8; made in house; host or cells: E. coli BL21(DE3), pET14b vector
T1 sequence (Q9BY41 1-377): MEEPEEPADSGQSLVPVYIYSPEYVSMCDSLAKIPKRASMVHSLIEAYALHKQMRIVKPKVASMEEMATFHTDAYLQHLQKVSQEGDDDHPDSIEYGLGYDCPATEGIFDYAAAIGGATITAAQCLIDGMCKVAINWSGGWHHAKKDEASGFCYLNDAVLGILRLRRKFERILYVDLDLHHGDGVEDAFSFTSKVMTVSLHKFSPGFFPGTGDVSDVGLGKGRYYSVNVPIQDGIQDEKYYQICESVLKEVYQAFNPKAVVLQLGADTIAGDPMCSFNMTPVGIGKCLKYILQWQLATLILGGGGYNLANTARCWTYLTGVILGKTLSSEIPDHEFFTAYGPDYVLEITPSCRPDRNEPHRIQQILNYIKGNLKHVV
The assay can be described thus: HDAC enzyme activity assay (fluorogenic, Boc-Lys(trifluoroacetyl)-AMC), HDAC8. The class given is biochemical. The settings on record: class I HDAC8; mean ± SD, triplicate.

In another assay the test system is HCT116. The assay is described as follows: MTT cell proliferation assay, HCT116. The assay is classed as cell-based, human. The settings on record: Homo sapiens, HCT-116; MTT, 72 h; mean ± SD, triplicate; read-out: IC50 ± SD HCT116. A general note: Tetrazolium assays rely on reduction of a dye to a coloured formazan, in cell work by metabolically active cells.
The next assay addresses T2, HDAC4 (Homo sapiens, UniProt P56524).
T2 construct: catalytic domain of HDAC4 (T648-T1057, full length: UniProt P56524); made in house; host or cells: E. coli BL21(DE3), pET14b vector
The assay can be described thus: HDAC enzyme activity assay (fluorogenic, Boc-Lys(trifluoroacetyl)-AMC), HDAC4. The class given is biochemical. The settings on record: class IIa HDAC4; mean ± SD, triplicate.

Assay [2] relates to MCF7 and HCT-116 cells. The assay is described as follows: Clonogenic assay. The class given is cell-based, human. The settings on record: 12–14 days. The procedure: To evaluate the effect of compound 5c on the cell survival of MCF7 and HCT-116 cells, a clonogenic assay was performed. Colony formation of MCF7 and HCT-116 cells was inhibited by compound 5c in a dose-dependent manner, compared to the control cells treated with DMSO (Figure 11).
MCF7 and HCT-116 cells were seeded in a six-well culture plate at a density of 500 cells/well. After cells adhered completely, they were incubated in the culture medium with DMSO, 0.1 μM 5c, and 1 μM 5c. The medium, along with the treatment, was replenished every 3 days for 12–14 days. The colonies formed were fixed with a 3:1 ratio of methanol and glacial acetic acid for 10 min. The wells were then washed with 1× PBS, and cells were stained with 0.5% v/v crystal violet solution for 10 min [55]. Excess stain was washed off in running water, and images were taken after proper drying. Colonies were counted visually or using ImageJ software, NIH (Version 1.53K). The stain taken up by the colonies was dissolved in 0.1% SDS, and absorbance was read at 540 nm. Graphs were plotted using GraphPad Prism 8.0.2.

For a further assay, the system named is MCF7 cells. The assay can be described thus: Annexin V–FITC/PI apoptosis assay by flow cytometry. The settings on record: MCF7, 0.1 and 1 μM, 24 h. The class given is cell-based, human. The procedure:
The efficacy of compound 5c to induce apoptosis was determined by annexin V–FITC/PI assay using flow cytometry. MCF7 cells were treated with two different concentrations of 5c as indicated, and the percentages of cells in the apoptotic and necrotic stage were analyzed, as depicted in Figure 8.
The apoptosis assay was performed using an annexin V–FITC Apoptosis detection kit (Sigma-Aldrich, APOAF) according to the manufacturer’s instructions. Cells were harvested, and 0.1 × 10^6 cells were seeded in a six-well cell culture plate and allowed to adhere followed by treatment with DMSO as the control and compound 5c at 0.1 μM and 1 μM concentrations for 24 h. The cells were trypsinized, pelleted down, and resuspended in the 1× buffer provided. The cells were stained using annexin V–FITC/PI and analyzed immediately using flow cytometry. Further analysis and plotting of graphs were conducted using Flowjo 7.6 [53].
(In general: Flow cytometry measures light scatter and fluorescence of single cells or particles in a stream.)

Molecules are shown by their SMILES.

T2 sequence (P56524 648-1057): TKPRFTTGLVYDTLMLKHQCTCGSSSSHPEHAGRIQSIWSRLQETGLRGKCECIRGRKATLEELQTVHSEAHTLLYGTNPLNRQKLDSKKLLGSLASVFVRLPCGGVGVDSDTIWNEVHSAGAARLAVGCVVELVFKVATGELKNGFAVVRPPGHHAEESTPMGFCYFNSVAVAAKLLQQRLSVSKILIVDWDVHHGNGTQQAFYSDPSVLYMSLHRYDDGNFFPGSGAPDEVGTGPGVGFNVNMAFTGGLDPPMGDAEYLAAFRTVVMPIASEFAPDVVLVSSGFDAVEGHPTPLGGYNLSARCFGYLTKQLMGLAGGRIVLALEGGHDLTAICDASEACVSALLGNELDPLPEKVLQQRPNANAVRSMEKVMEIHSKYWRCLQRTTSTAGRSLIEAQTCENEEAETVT

Take `Cc1ccc(-n2c(SCc3ccc(C(=O)NO)cc3)nc3ccccc3c2=O)cc1` [Compound 5c, N-hydroxy-4-(((4-oxo-3-(p-tolyl)-3,4-dihydroquinazolin-2-yl)thio)methyl)benzamide]: the “apoptosis by acridine orange staining” value in the assay on MCF7 and HCT-116 cells [1] is “evidential apoptosis”. Besides, the “protein expression of cleaved PARP” value in the assay with cleaved PARP is “significantly higher”. In addition, the IC50 against HDAC8 worked out at 2.3 ± 0.5 µM; in the assay on HCT116, 12.4 ± 1.41 µM; on HDAC4, 0.72 ± 0.21 µM. Moreover, the number of colonies result with MCF7 and HCT-116 cells [2] (MCF7 and HCT-116, 0.1 μM) is reported as “significantly reduced”. Also, in the assay on MCF7 and HCT-116 cells [2] (MCF7 and HCT-116, 1 μM), the “cell anchorage and growth” value is on record as “almost completely arrested”. In addition, the “state of cells with increase in concentration” value in the assay with MCF7 cells is “late apoptosis and necrosis”.

Broadly, the IC50 is the concentration at which inhibition is half-maximal.
